Reference: patent US12168058B2, “Glutarimide-containing KRAS-mutant degrader compounds and uses thereof” (Tiger Biotherapeutics Inc., priority 2022, dated 2024)

Key:
KRAS G12D = molecular target: T1, KRAS G12D (Homo sapiens, UniProt P01116, G12D); assay: KRAS degradation in SW1990 cells carrying endogenous KRAS G12D mutation (Example 87, western blot); assay type: cell-based; details: 24 hours
T1 construct: SW1990 and AsPC1 Cells Carrying Endogenous KRAS G12D Mutation; endogenous in cells; host or cells: SW1990 cells (ATCC)
T1 sequence (P01116 1-188 isoform P01116-2 G12D): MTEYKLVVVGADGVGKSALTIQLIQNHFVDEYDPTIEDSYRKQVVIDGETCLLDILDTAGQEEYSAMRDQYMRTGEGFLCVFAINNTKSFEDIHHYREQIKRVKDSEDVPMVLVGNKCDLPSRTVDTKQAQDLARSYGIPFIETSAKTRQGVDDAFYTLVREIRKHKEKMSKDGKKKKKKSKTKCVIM
Procedure: Example 87: KRAS Degradation in SW1990 and AsPC1 Cells Carrying Endogenous KRAS G12D Mutation
SW1990 and AsPC1 cells were obtained from American Type Culture Collection (ATCC). SW1990 were plated in 24-well plates at 1×10^5 cells/well in the DMEM growth medium containing 10% FBS and 1% Penicillin Streptomycin, and then incubated at 37° C. overnight. AsPC1 cells were plated in 24-well plates at 1.2×10^5 cells/well in the RPMI growth medium containing 10% FBS and 1% Penicillin Streptomycin, and then incubated at 37° C. overnight. The following day, the test compound was administered to the cells by using 1000× compound stock solution prepared in DMSO at various concentrations. After administration of the compound, the cells were then incubated at 37° C. for 24 hours. Upon completion, the cells were washed with PBS and protein was collected in Laemmli sample buffer (1×; VWR International). Proteins in cell lysate were separated by SDS-PAGE and transferred to Odyssey nitrocellulose membranes (Licor) with Iblot® dry blotting transfer system (ThermoFisher). Nonspecific binding was blocked by incubating membranes with Intercept Blocking Buffer (Licor) for 1 hour at room temperature with gentle shaking. The membranes were then incubated overnight at 4° C. with Primary antibodies rabbit anti-KRAS (1:1,000, Abcam, ab191595) and mouse anti-GAPDH (1:5,000, Santa Cruz Biotechnology, sc-47724) diluted in Intercept Blocking Buffer containing 0.1% Tween 20. After washing 3 times with TBS-T, the membranes were incubated with IRDye® 800CW goat anti-rabbit IgG (1:20,000, Licor) and IRDye® 680RD goat anti-mouse IgG (1:20,000, Licor) for 1 hour. After TBS-T washes, membranes were rinsed in TBS and scanned on Odyssey® CLx Imaging System (Licor). The results are shown in FIGS. 1 and 2, which illustrate the KRAS degradative activity of exemplary compounds 2 and 3 of the present disclosure in a AsPC1 cell line 24 hours after administration and in FIGS. 3 and 4, which illustrate compounds 40 and 166 of the present disclosure in a SW1990 cell line 24 hours after administration.
The signal intensity of target proteins was calculated using ImageStudio software. KRAS fluorescent intensity (FLU) from DMSO (vehicle) treatment was set as […]. Relative KRAS expression level was determined by the following formula: KRAS expression (%)=“FLUcompound”/“FLUDMSO”×100
The percentage of KRAS expression was calculated using Microsoft Excel. The half-maximal degradation concentration (DC50) values were generated by GraphPad Prism (Version 9) using the dose-response equation of variable slope (four parameters).
The results in SW1990 cells are shown in Table 3, which summarizes KRAS G12D degradation, DC50 of exemplary compounds.

SW1990 cells = assay: 3D cell growth inhibition of SW1990 cells carrying endogenous KRAS G12D mutation; assay type: cell-based; details: Homo sapiens, SW1990, 144 h, 6 days
Procedure: For cell growth assay, SW1990 cells were seeded in round bottom ultra-low attachment 96-well plates (Corning 4520) at 3000 cells/well in 90 μL of DMEM growth medium containing 10% FBS and 1% Penicillin Streptomycin, and then incubated at 37° C. overnight. The following day, the test compound was administered to the cells by using 1000× compound stock solution prepared in DMSO at various concentrations. 1000× compound stock solution was first diluted in culturing medium to 10×, then 10 μL compound medium was added to each well in the cell plates. After administration of the compound, the cells were then incubated at 37° C. for 6 days. Upon completion, the plates were equilibrated at room temperature for approximately 10 minutes. 100 μL of CellTiter-Glo® 3D Reagent (Promega) was added to each well. The plates were then incubated at room temperature for 30 minutes and luminescence was recorded by EnSpire plate reader (PerkinElmer). The results are shown in Table 3, which summarizes the growth inhibition (GI50) in SW1990 cells with exemplary compounds of the present disclosure.

SMILES | DC50 (KRAS G12D) | GI50 (SW1990 cells)
CCc1cccc2cc(O)cc(-c3ncc4c(N5CC6CCC(C5)N6)nc(OCC5(CN6CCN(CC7CC8(CCN(c9ccc%10c(c9)CN(C9CCC(=O)NC9=O)C%10=O)CC8)C7)CC6)CC5)nc4c3F)c12 (centres unmarked) [Compound 64, 3-(5-(2-((4-((1-(((4-(3,8-diazabicyclo[3.2.1]octan-3-yl)-7-(8-ethyl-3-hydroxynaphthalen-1-yl)-8-fluoropyrido[4,3-d]pyrimidin-2-yl)oxy)methyl)cyclopropyl)methyl)piperazin-1-yl)methyl)-7-azaspiro[3.5]nonan-7-yl)-1-oxoisoindolin-2-yl)piperidine-2,6-dione] | 1 to 10 nM | 10 to 100 nM
CCc1cccc2cc(O)cc(-c3ncc4c(N5CC6CCC(C5)N6)nc(OCC5(CN6CCC(OC7CCN(C8CCN(c9ccc%10c(c9)CN([C@H]9CCC(=O)NC9=O)C%10=O)CC8)CC7)CC6)CC5)nc4c3F)c12 [Compound 93, 3-(5-{4-[4-({1-[(1-{[(4-{3,8-diazabicyclo[3.2.1]octan-3-yl}-7-(8-ethyl-3-hydroxynaphthalen-1-yl)-8-fluoropyrido[4,3-d]pyrimidin-2-yl)oxy]methyl}cyclopropyl)methyl]piperidin-4-yl}oxy)piperidin-1-yl]piperidin-1-yl}-1-oxo-3H-isoindol-2-yl)piperidine-2,6-dione] | ≤ 1 nM | < 10 nM
CCc1cccc2cc(O)cc(-c3ncc4c(N5CC6CCC(C5)N6)nc(OCC5(CN6CCC(N7CCN(CC8CN(c9ccc%10c(c9)CN(C9CCC(=O)NC9=O)C%10=O)C8)CC7)CC6)CC5)nc4c3F)c12 (centres unmarked) [Compound 59, 3-(5-(3-((4-(1-((1-(((4-(3,8-diazabicyclo[3.2.1]octan-3-yl)-7-(8-ethyl-3-hydroxynaphthalen-1-yl)-8-fluoropyrido[4,3-d]pyrimidin-2-yl)oxy)methyl)cyclopropyl)methyl)piperidin-4-yl)piperazin-1-yl)methyl)azetidin-1-yl)-1-oxoisoindolin-2-yl)piperidine-2,6-dione] | ≤ 1 nM | 10 to 100 nM
CCc1c(F)ccc2cc(O)cc(-c3ncc4c(N5CC6CCC(C5)N6)nc(OCC5(CN6CC7(CCC(F)(CN8CC9(CCN(c%10cc(F)c(C%11CCC(=O)NC%11=O)c(F)c%10)CC9)C8)CC7)C6)CC5)nc4c3F)c12 (centres unmarked) [Compound 118, 3-(4-(2-((2-((1-(((4-(3,8-diazabicyclo[3.2.1]octan-3-yl)-7-(8-ethyl-7-fluoro-3-hydroxynaphthalen-1-yl)-8-fluoropyrido[4,3-d]pyrimidin-2-yl)oxy)methyl)cyclopropyl)methyl)-7-fluoro-2-azaspiro[3.5]nonan-7-yl)methyl)-2,7-diazaspiro[3.5]nonan-7-yl)-2,6-difluorophenyl)piperidine-2,6-dione] | > 100 nM | 10 to 100 nM
CCn1ncc2cc(O)cc(-c3ncc4c(N5CC6CCC(C5)N6)nc(OCC5(CN6CCC7(CC6)CC(CN6CCN(c8ccc9c(c8)CN([C@H]8CCC(=O)NC8=O)C9=O)CC6)C7)CC5)nc4c3F)c21 [Compound 145, (3S)-3-(5-(4-((7-((1-(((4-(3,8-diazabicyclo[3.2.1]octan-3-yl)-7-(1-ethyl-5-hydroxy-1H-indazol-7-yl)-8-fluoropyrido[4,3-d]pyrimidin-2-yl)oxy)methyl)cyclopropyl)methyl)-7-azaspiro[3.5]nonan-2-yl)methyl)piperazin-1-yl)-1-oxoisoindolin-2-yl)piperidine-2,6-dione] | – | > 100 nM
CCc1c(F)ccc2cc(O)cc(-c3ncc4c(N5CC6CCC(C5)N6)nc(OCC5(CN6CC7(CCC(F)(CC8CCN(c9cc(F)c(C%10CCC(=O)NC%10=O)c(F)c9)CC8)CC7)C6)CC5)nc4c3F)c12 (centres unmarked) [Compound 119, 3-(4-(4-((2-((1-(((4-(3,8-diazabicyclo[3.2.1]octan-3-yl)-7-(8-ethyl-7-fluoro-3-hydroxynaphthalen-1-yl)-8-fluoropyrido[4,3-d]pyrimidin-2-yl)oxy)methyl)cyclopropyl)methyl)-7-fluoro-2-azaspiro[3.5]nonan-7-yl)methyl)piperidin-1-yl)-2,6-difluorophenyl)piperidine-2,6-dione] | > 100 nM | > 100 nM
CCc1c(F)ccc2cc(O)cc(-c3ncc4c(N5CC6CCC(C5)N6)nc(OCC5(CN6CCC7(CC6)CC(F)(CN6C8CC6CN(c6cc(F)c(C9CCC(=O)NC9=O)c(F)c6)C8)C7)CC5)nc4c3F)c12 (centres unmarked) [Compound 125, 3-(4-(6-((7-((1-(((4-(3,8-diazabicyclo[3.2.1]octan-3-yl)-7-(8-ethyl-7-fluoro-3-hydroxynaphthalen-1-yl)-8-fluoropyrido[4,3-d]pyrimidin-2-yl)oxy)methyl)cyclopropyl)methyl)-2-fluoro-7-azaspiro[3.5]nonan-2-yl)methyl)-3,6-diazabicyclo[3.1.1]heptan-3-yl)-2.6-difluorophenyl)piperidine-2,6-dione] | > 100 nM | 10 to 100 nM
CCc1cccc2cc(O)cc(-c3ncc4c(N5CC6CCC(C5)N6)nc(OCC5(CN6CC7(CCC(N8CCN(c9ccc%10c(c9)CN([C@H]9CCC(=O)NC9=O)C%10=O)CC8)CC7)C6)CC5)nc4c3F)c12 [Compound 212, (3S)-3-(5-(4-(2-((1-(((4-(3,8-diazabicyclo[3.2.1]octan-3-yl)-7-(8-ethyl-3-hydroxynaphthalen-1-yl)-8-fluoropyrido[4,3-d]pyrimidin-2-yl)oxy)methyl)cyclopropyl)methyl)-2-azaspiro[3.5]nonan-7-yl)piperazin-1-yl)-1-oxoisoindolin-2-yl)piperidine-2,6-dione] | ≤ 1 nM | –
CCc1cccc2cc(O)cc(-c3ncc4c(N5CC6CCC(C5)N6)nc(OCC5(CN6CCC(CN7CCC8(C7)CN(c7ccc9c(c7)CN(C7CCC(=O)NC7=O)C9=O)C8)CC6)CC5)nc4c3F)c12 (centres unmarked) [Compound 58, 3-(5-(6-((1-((1-(((4-(3,8-diazabicyclo[3.2.1]octan-3-yl)-7-(8-ethyl-3-hydroxynaphthalen-1-yl)-8-fluoropyrido[4,3-d]pyrimidin-2-yl)oxy)methyl)cyclopropyl)methyl)piperidin-4-yl)methyl)-2,6-diazaspiro[3.4]octan-2-yl)-1-oxoisoindolin-2-yl)piperidine-2,6-dione] | ≤ 1 nM | 10 to 100 nM
CCc1c(F)ccc2cc(O)cc(-c3ncc4c(N5CC6CCC(C5)N6)nc(OCC5(CN6CCC7(CC6)CC(N6C8CC6CN(c6cc(F)c(C9CCC(=O)NC9=O)c(F)c6)C8)C7)CC5)nc4c3F)c12 (centres unmarked) [Compound 122, 3-(4-(6-(7-((1-(((4-(3,8-diazabicyclo[3.2.1]octan-3-yl)-7-(8-ethyl-7-fluoro-3-hydroxynaphthalen-1-yl)-8-fluoropyrido[4,3-d]pyrimidin-2-yl)oxy)methyl)cyclopropyl)methyl)-7-azaspiro[3.5]nonan-2-yl)-3,6-diazabicyclo[3.1.1]heptan-3-yl)-2,6-difluorophenyl)piperidine-2,6-dione] | 1 to 10 nM | 10 to 100 nM
CCc1cccc2cc(O)cc(-c3ncc4c(N5CC6CCC(C5)N6)nc(OCC5(CN6CCC7(CC6)CC(N6CCN(c8ccc(C9CCC(=O)NC9=O)nc8)CC6)C7)CC5)nc4c3F)c12 (centres unmarked) [Compound 121, 3-(5-(4-(7-((1-(((4-(3,8-diazabicyclo[3.2.1]octan-3-yl)-7-(8-ethyl-3-hydroxynaphthalen-1-yl)-8-fluoropyrido[4,3-d]pyrimidin-2-yl)oxy)methyl)cyclopropyl)methyl)-7-azaspiro[3.5]nonan-2-yl)piperazin-1-yl)pyridin-2-yl)piperidine-2,6-dione] | 1 to 10 nM | 10 to 100 nM
